Experimental data from patent EP0335902B1, “MONOMERIC PHTHALOCYANINE REAGENTS” (BRITISH TECHNOLOGY GROUP USA INC., priority 1986, dated 1988).
Like-named read-outs stand apart in the source and are kept apart here.

Legend:
[1] = tested on: antimorphine monoclonal antibody; experiment: competition experiment with antimorphine monoclonal antibody and tritium-labeled morphine (relative immunoaffinity); assay type: binding
Method: The relative immunoaffinity of morphine, the amino morphine analog, and the amino-morphine derivative of mono-PABA-sulfonyl aluminum phthalocyanine disulfonate was determined in a competition experiment with antimorphine monoclonal antibody and tritium-labeled morphine.

[2] = fluorescence and UV-VIS spectroscopy of phthalocyanine derivatives; assay type: physicochemical
Source text: As a family of chromophores the metallophthalocyanines are characterized by a very narrow and strong absorption in the red envelope centered around 670 nm (Eo=230,000) and a broad and less intense absorption (Eo=60,000) at around 350 nm.
It is contemplated that other metal atoms (M) with +3 valences or higher may take on an axial ligand(s) in the phthalocyanine macrocycle, thereby conferring a similar resistance to aggregation in aqueous solution. For use as fluorescent species, the metal should be diamagnetic and have a lower atomic weight than that of […], so as to avoid a heavy-atom quenching effect; suitable metal atoms for the latter purpose include aluminum, silicon, phosphorus, gallium, germanium, and tin. […] Both processes give rise to radiationless deactivation of the excited state and serve to decrease the fluorescent quantum yield.
The ultimate sensitivity of a fluorogenic enzyme assay is determined by the spectral properties of the generated fluorophore.

[3] = solubility of aluminum phthalocyanines in water and solvents; settings: for solubility in polar, protic solvents such as methanol: effect of axial ligand L
Source text: The following "R" substituents (R₁ and/or R₂) bound to the phthalocyanine macrocycle 1 can serve as suitable water-solubilizing moieties: sulfonic acid groups (-SO₃H), sulfonate groups (-SO₃⁻, X⁺), carboxylic acid groups (-CO₂H), carboxylate groups (-CO₂⁻, X⁺), phosphoric acid groups (-PO₄H₂), phosphate groups (-PO₄⁻⁻, 2X⁺), phosphonate groups (-PO₃H or -PO₃⁻, X⁺), hydroxy or phenoxy groups (-OH), amino groups (-NH₂), and ammonium and pyridinium groups (-NR₄⁺, X⁻).
To enhance water solubility, L should be -OZ or -NZ₂ wherein Z is selected from among hydrogen, alkyl, acyl, and silyl groups, the latter three preferably being charged.

[4] = assay type: physicochemical
Method: The phthalocyanines are thermally stable, and are often purified by sublimation at temperatures greater than 400°C. Chemically, the phthalocyanines are resistant to acidic or basic hydrolysis, oxidation, and reduction.

[5] = λmax 678.5 nm, in chloronaphthalene; cited from earlier work

Which “Relative Affinity” value [1] does the source give for CN1CC[C@]23c4c5ccc(O)c4O[C@H]2[C@@H](O)C=C[C@H]3[C@H]1C5 [morphine, reference compound] here?
Its value is 1.

Which Stokes shift [2] does the source give for aluminum phthalocyanine trisulfonate here?
Its Stokes shift is 335 nm.

What about the fluorescence emission lifetime [2] of the same compound?
The fluorescence emission lifetime was 5 ns.

And the polarization coefficient [2]?
The polarization coefficient was 0.005.

What about the “quantum yield when aggregated” value ([2]; aggregated) of the same compound?
The value was less than 0.02.

And the “quantum yield when aggregated, of its original value” ([2]; aggregated)?
The value was “less than 4%”.

What about the emission wavelength ([2]; excitation at 350 nm) of the same compound?
Its emission wavelength is 680 nm.

What about the solubility in water [3] of the same compound?
Its solubility in water is “high water solubility”.

And the photochemical stability [4]?
The photochemical stability was “photochemically inert”.

For [OH][Al]1[n]2c3c4ccccc4c2N=C2N=C(N=c4c5ccccc5c([n]41)=NC1=NC(=N3)c3ccccc31)c1ccccc12 [hydroxyaluminum phthalocyanine], which “solubility in polar, protic solvents such as methanol” value [3] is on record?
The value was “soluble in polar, protic solvents such as methanol”.

Which “solubility in polar, protic solvents such as methanol” value [3] does the source give for [Cl][Al]1[n]2c3c4ccccc4c2/N=C2N=C(/N=c4/c5ccccc5/c([n]41)=N/C1=NC(=N\3)/c3ccccc31)c1ccccc1\2 [chloraluminum phthalocyanine] here?
The value was “but not chloraluminum phthalocyanine is soluble in polar, protic solvents”.

Which “molar absorptivity ε” value [5] does the source give for c1ccc2c(c1)C1=NC2=Nc2c3ccccc3c3[n]2[Cu][n]2c(c4ccccc4c2=NC2=NC(=N3)c3ccccc32)=N1 [compound 9, Copper phthalocyanine] here?
Its value is 218,500.

With “copper(II)phthalocyanine trisulfonate [reference compound]” as the compound, how does the “fluorescence quantum yield relative to aluminum(III)phthalocyanine trisulfonate” value ([2]; comparative example) read?
Its value is “more than 200 times less”.

Which “Relative Affinity” value ([1]; relative affinity of antimorphine monoclonal antibody for competitor versus tritium-labeled morphine) does the source give for “3-(4-aminobutyl)morphine [amino morphine]” here?
The value was 1.

For [OH][Al]1[n]2c3c4ccccc4c2N=C2N=C(N=c4c5ccccc5c([n]41)=NC1=NC(=N3)c3ccccc31)c1ccccc12 [aluminum phthalocyanine, reference compound], which Stokes shift [2] is on record?
The Stokes shift was 330 nm.

And the solubility in water ([3]; water)?
Its solubility in water is “poorly soluble in water”.
